Measurements: the supplement of paper PMC10307832

Legend:
Experiment in all cases: relative viability (nuclei count vs DMSO), 5 days (fraction); higher = more cells survive
[1] = compound: CC[C@H](Nc1ncnc2[nH]cnc12)c1nc2cccc(F)c2c(=O)n1-c1ccccc1 [Idelalisib] + COc1cccc2cc(-c3nc([C@H]4CC[C@H](C(=O)O)CC4)n4ncnc(N)c34)[nH]c12 [OSI-027] (partner 0.5 µM)
In short: (§1)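 One day after seeding in 1536-well plates, lung cancer cell lines were dosed by pin tool. Dosing was either single-drug or a fixed anchor-drug dose plus five library-drug doses (not always all listed) in √10 steps. After 5 days, nuclei were stained in one fix-and-stain step and counted on 4× images, and relative viability is the nuclei count of treated wells over that of vehicle wells, given as the median of duplicate plates.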

[2] = compound: Nc1nc2[nH]cc(CCc3ccc(C(=O)N[C@@H](CCC(=O)O)C(=O)O)cc3)c2c(=O)[nH]1 [Pemetrexed] + Cc1cc(Nc2cc(N3CCN(C)CC3)nc(Sc3ccc(NC(=O)C4CC4)cc3)n2)n[nH]1 [Tozasertib] (partner 0.1 µM)
In short: as §1

[3] = compound: CC[C@H](Nc1ncnc2[nH]cnc12)c1nc2cccc(F)c2c(=O)n1-c1ccccc1 [Idelalisib] + CCNC(=O)c1noc(-c2cc(C(C)C)c(O)cc2O)c1-c1ccc(CN2CCOCC2)cc1 [Luminespib] (partner 0.01 µM)
In short: as §1

[4] = compound: Nc1nc2[nH]cc(CCc3ccc(C(=O)N[C@@H](CCC(=O)O)C(=O)O)cc3)c2c(=O)[nH]1 [Pemetrexed] + CC(=O)c1c(C)c2cnc(Nc3ccc(N4CCNCC4)cn3)nc2n(C2CCCC2)c1=O [Palbociclib] (partner 0.5 µM)
In short: as §1

## UMC-11
[1]; first compound 0.04 µM
  relative viability: 0.429
[1]; first compound 0.1265 µM
  relative viability: 0.491
[1]; first compound 0.4 µM
  relative viability: 0.542
[1]; first compound 1.265 µM
  relative viability: 0.513
[1]; first compound 4 µM
  relative viability: 0.42
[2]; first compound 0.002 µM
  relative viability: 0.196
[2]; first compound 0.006325 µM
  relative viability: 0.217
[2]; first compound 0.02 µM
  relative viability: 0.199
[2]; first compound 0.06325 µM
  relative viability: 0.202
[2]; first compound 0.2 µM
  relative viability: 0.208
[3]; first compound 0.04 µM
  relative viability: 0.902
[3]; first compound 0.1265 µM
  relative viability: 1.13
[3]; first compound 0.4 µM
  relative viability: 1.08
[3]; first compound 1.265 µM
  relative viability: 1.03
[3]; first compound 4 µM
  relative viability: 0.949
[4]; first compound 0.002 µM
  relative viability: 0.344
[4]; first compound 0.006325 µM
  relative viability: 0.322
[4]; first compound 0.02 µM
  relative viability: 0.343
[4]; first compound 0.06325 µM
  relative viability: 0.342
[4]; first compound 0.2 µM
  relative viability: 0.357
